Experimental findings from PubChem BioAssay AID1671426 are described below.

Usually IC50 stands for the concentration that gives 50% inhibition.

The assay deals with Proto-oncogene tyrosine-protein kinase Src (Homo sapiens) (UniProt P12931). In words: PubChem AID 1671426. To be noted: Z'-LYTE FRET kinase activity, recombinant SRC N1.
Sequence of Proto-oncogene tyrosine-protein kinase Src (Homo sapiens) (P12931 whole entry, looked up): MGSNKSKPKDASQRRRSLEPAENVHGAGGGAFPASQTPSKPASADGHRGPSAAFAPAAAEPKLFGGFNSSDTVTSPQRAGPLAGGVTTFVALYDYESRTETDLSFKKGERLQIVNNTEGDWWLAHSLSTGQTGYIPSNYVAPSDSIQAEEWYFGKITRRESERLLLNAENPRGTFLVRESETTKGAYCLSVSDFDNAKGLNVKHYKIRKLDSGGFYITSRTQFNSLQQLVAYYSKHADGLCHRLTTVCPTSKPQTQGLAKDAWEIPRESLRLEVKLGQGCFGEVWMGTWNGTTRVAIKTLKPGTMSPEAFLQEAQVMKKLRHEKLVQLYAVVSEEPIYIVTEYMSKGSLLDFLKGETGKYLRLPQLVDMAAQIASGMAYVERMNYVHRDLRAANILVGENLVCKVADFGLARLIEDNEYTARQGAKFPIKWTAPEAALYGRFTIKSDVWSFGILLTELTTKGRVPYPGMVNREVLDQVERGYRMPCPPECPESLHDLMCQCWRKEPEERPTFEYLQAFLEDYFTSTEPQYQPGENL

Consider `COc1cc2ncnc(Nc3cccc(Cl)c3)c2cc1OC`, for which the IC50 is 1980 nM.
